According to patent US8877748B2, “Heterocyclic fused anthraquinone derivatives, manufacturing method and pharmaceutical composition using thereof” (National Defense Medical Center, priority 2012, dated 2014):
Read-outs that look alike come from different tables or passages of the source. One block for each molecule: values may come before it.

Assays:
[1] = test system: PC-3 prostate cancer cell line; assay: SRB assay cell viability, PC-3 prostate cancer cell line; assay type: cell-based, human; settings: PC-3 prostate cancer cell line, Table II prints no unit, μM printed, read-out: SRB assay: 50% inhibition of cancer cell proliferation of sample concentration (IC50) of PC-3 prostate cancer cell line
EKVX = assay: NCI one-dose screening, non-small cell lung cancer EKVX; assay type: cell-based, human; settings: 10 μM
HOP-62 = assay: NCI one-dose screening, non-small cell lung cancer HOP-62; assay type: cell-based, human; settings: 10 μM
NCI-H226 = assay: NCI one-dose screening, non-small cell lung cancer NCI-H226; assay type: cell-based, human; settings: 10 μM
NCI-H23 = assay: NCI one-dose screening, non-small cell lung cancer NCI-H23; assay type: cell-based, human; settings: 10 μM
NCI-H522 = assay: NCI one-dose screening, non-small cell lung cancer NCI-H522; assay type: cell-based, human; settings: 10 μM
A549/ATCC = assay: NCI one-dose screening, non-small cell lung cancer A549/ATCC; assay type: cell-based, human; settings: 10 μM
COLO 205 = assay: NCI one-dose screening, colon cancer COLO 205; assay type: cell-based, human; settings: 10 μM
HCC-2998 = assay: NCI one-dose screening, colon cancer HCC-2998; assay type: cell-based, human; settings: 10 μM
HCT-116 = assay: NCI one-dose screening, colon cancer HCT-116; assay type: cell-based, human; settings: 10 μM
HCT-15 = assay: NCI one-dose screening, colon cancer HCT-15; assay type: cell-based, human; settings: 10 μM
HT29 = assay: NCI one-dose screening, colon cancer HT29; assay type: cell-based, human; settings: 10 μM
SF-539 = assay: NCI one-dose screening, CNS cancer SF-539; assay type: cell-based, human; settings: 10 μM
SNB-19 = assay: NCI one-dose screening, CNS cancer SNB-19; assay type: cell-based, human; settings: 10 μM
SNB-75 = assay: NCI one-dose screening, CNS cancer SNB-75; assay type: cell-based, human; settings: 10 μM
U251 = assay: NCI one-dose screening, CNS cancer U251; assay type: cell-based, human; settings: 10 μM
LOX IMVI = assay: NCI one-dose screening, melanoma LOX IMVI; assay type: cell-based, human; settings: 10 μM
MALME-3M = assay: NCI one-dose screening, melanoma MALME-3M; assay type: cell-based, human; settings: 10 μM
M14 = assay: NCI one-dose screening, melanoma M14; assay type: cell-based, human; settings: 10 μM
UACC-62 = assay: NCI one-dose screening, melanoma UACC-62; assay type: cell-based, human; settings: 10 μM
UACC-257 = assay: NCI one-dose screening, melanoma UACC-257; assay type: cell-based, human; settings: 10 μM
SK-MEL-2 = assay: NCI one-dose screening, melanoma SK-MEL-2; assay type: cell-based, human; settings: 10 μM
SK-MEL-28 = assay: NCI one-dose screening, melanoma SK-MEL-28; assay type: cell-based, human; settings: 10 μM
SK-MEL-5 = assay: NCI one-dose screening, melanoma SK-MEL-5; assay type: cell-based, human; settings: 10 μM
IGROV1 = assay: NCI one-dose screening, ovarian cancer IGROV1; assay type: cell-based, human; settings: 10 μM
OVCAR-5 = assay: NCI one-dose screening, ovarian cancer OVCAR-5; assay type: cell-based, human; settings: 10 μM
OVCAR-8 = assay: NCI one-dose screening, ovarian cancer OVCAR-8; assay type: cell-based, human; settings: 10 μM
SK-OV-3 = assay: NCI one-dose screening, ovarian cancer SK-OV-3; assay type: cell-based, human; settings: 10 μM
786-O = assay: NCI one-dose screening, renal cancer 786-O; assay type: cell-based, human; settings: 10 μM
CAKI-1 = assay: NCI one-dose screening, renal cancer CAKI-1; assay type: cell-based, human; settings: 10 μM
ACHN = assay: NCI one-dose screening, renal cancer ACHN; assay type: cell-based, human; settings: 10 μM
SN12C = assay: NCI one-dose screening, renal cancer SN12C; assay type: cell-based, human; settings: 10 μM
TK-10 = assay: NCI one-dose screening, renal cancer TK-10; assay type: cell-based, human; settings: 10 μM
UO-31 = assay: NCI one-dose screening, renal cancer UO-31; assay type: cell-based, human; settings: 10 μM
RXF, 393 = assay: NCI one-dose screening, renal cancer RXF, 393; assay type: cell-based, human; settings: 10 μM
MCF7 = assay: NCI one-dose screening, breast cancer MCF7; assay type: cell-based, human; settings: 10 μM
MDA-MB-231/ATCC = assay: NCI one-dose screening, breast cancer MDA-MB-231/ATCC; assay type: cell-based, human; settings: 10 μM
MDA-MB-468 = assay: NCI one-dose screening, breast cancer MDA-MB-468; assay type: cell-based, human; settings: 10 μM
NCl/ADR-RES = assay: NCI one-dose screening, breast cancer NCl/ADR-RES; assay type: cell-based, human; settings: 10 μM; listed under Ovarian cancer
BT-549 = assay: NCI one-dose screening, breast cancer BT-549; assay type: cell-based, human; settings: 10 μM
T-47D = assay: NCI one-dose screening, breast cancer T-47D; assay type: cell-based, human; settings: 10 μM
MDA, -MB-435 = assay: NCI one-dose screening, breast cancer MDA, -MB-435; assay type: cell-based, human; settings: 10 μM; listed under Melanoma
human tumor cell lines = assay: NCI one-dose screening, Mean / Delta / Range of growth percent over all tested cell lines; assay type: cell-based; settings: 10 μM

IC50 ([1]; Homo sapiens): 5.64 µM
SMILES: O=C1c2ccccc2C(=O)c2c1cc(Sc1cccc(Cl)c1)c1nsnc21 [C37, 4-(3-chlorophenyl-thio)anthra[2,1-c][1,2,5] thiadiazol-6,11-dione]
Growth Percent EKVX (EKVX): 43.65%
Growth Percent HOP-62 (HOP-62): 42.12%
Growth Percent NCI-H226 (NCI-H226): 78.07%
Growth Percent NCI-H23 (NCI-H23): −26.91%
Growth Percent NCI-H522 (NCI-H522): 7.18%
Growth Percent A549/ATCC (A549/ATCC): 107.48%
Growth Percent COLO 205 (COLO 205): 105.98%
Growth Percent HCC-2998 (HCC-2998): 101.66%
Growth Percent HCT-116 (HCT-116): −67.84%
Growth Percent HCT-15 (HCT-15): 17.97%
Growth Percent HT29 (HT29): 102.17%
Growth Percent SF-539 (SF-539): −52.72%
Growth Percent SNB-19 (SNB-19): 56.88%
Growth Percent SNB-75 (SNB-75): 26.08%
Growth Percent U251 (U251): −69.50%
Growth Percent LOX IMVI (LOX IMVI): −59.25%
Growth Percent MALME-3M (MALME-3M): −86.56%
Growth Percent M14 (M14): −76.44%
Growth Percent UACC-62 (UACC-62): −64.98%
Growth Percent UACC-257 (UACC-257): −84.59%
Growth Percent SK-MEL-2 (SK-MEL-2): −53.17%
Growth Percent SK-MEL-28 (SK-MEL-28): 24.96%
Growth Percent SK-MEL-5 (SK-MEL-5): 19.02%
Growth Percent IGROV1 (IGROV1): −13.50%
Growth Percent OVCAR-5 (OVCAR-5): 108.55%
Growth Percent OVCAR-8 (OVCAR-8): −22.92%
Growth Percent SK-OV-3 (SK-OV-3): 95.44%
Growth Percent 786-0 (786-O): −2.06%
Growth Percent CAKI-1 (CAKI-1): −3.69%
Growth Percent ACHN (ACHN): −92.53%
Growth Percent SN12C (SN12C): −66.17%
Growth Percent TK-10 (TK-10): 53.81%
Growth Percent UO-31 (UO-31): −74.79%
Growth Percent RXF 393 (RXF, 393): −27.84%
Growth Percent MCF7 (MCF7): −69.36%
Growth Percent MDA-MB-231/ATCC (MDA-MB-231/ATCC): −29.08%
Growth Percent MDA-MB-468 (MDA-MB-468): −79.19%
Growth Percent NCI/ADR-RES (NCl/ADR-RES): −15.13%
Growth Percent BT-549 (BT-549): 36.21%
Growth Percent T-47D (T-47D): −42.26%
Growth Percent MDA-MB-435 (MDA, -MB-435): −82.33%
Growth Percent Delta (human tumor cell lines; delta over all cell lines): 86.78%
Growth Percent Mean (human tumor cell lines; mean over all cell lines): −5.75%
Growth Percent Range (human tumor cell lines; range over all cell lines): 201.08%

IC50 ([1]; Homo sapiens): 12.4 µM
SMILES: O=C1c2ccccc2C(=O)c2c1cc(Sc1cccc(Br)c1)c1nsnc21 [C40, 4-(3-bromophenylthio)anthra[2,1-c][1,2,5] thiadiazol-6,11-dione]

IC50 ([1]; Homo sapiens): > 15 µM
SMILES: Cc1ccc(Sc2cc3c(c4nsnc24)C(=O)c2ccccc2C3=O)cc1 [C44, 4-(4-methyl-phenyl-thio)anthra[2,1-c] [1,2,5]thiadiazol-6,11-dione]

IC50 [1]: > 15 µM
SMILES: Cc1cccc(Sc2cc3c(c4nsnc24)C(=O)c2ccccc2C3=O)c1 [C47, 4-(m-phenylmethylthio)anthra[2,1-c] [1,2,5]thiadiazol-6,11-dione]

IC50 ([1]; Homo sapiens): > 15 µM
SMILES: Cc1cc(C)cc(Sc2cc3c(c4nsnc24)C(=O)c2ccccc2C3=O)c1 [C49, 4-(3,5-dimethyl-phenyl-thio)anthra[2,1-c] [1,2,5]thiadiazol-6,11-dione]
